Source: US20030170176A1, “Individualization of therapy with antipsychotics” (McGill University, priority 2001, published 2003)

System: AAMU-Ab
Test: Competitive antigen ELISA, cross-reactivity of AAMU-Ab
Type: binding, rabbit
Details: 0 = absence of inhibition or inhibition no higher than 40% at highest concentration tested (5 × 10^−3 M)
Protocol: Competitive Antigen ELISA
Buffers and water without additives are filtered through millipore filters and kept for 1 week. BSA, antibodies, Tween™ 20 and horse radish peroxidase conjugates are added to these buffers and water just prior to use. Urine samples are usually collected 4 hours after drinking a cup of coffee (instant or brewed with approximately 100 mg of caffeine per cup) and stored at −80° C. The urine samples are diluted 10 times with sodium phosphate buffer (620 mosm, pH 7.50) and are subsequently diluted with water to give concentrations of AAMU and 1× no higher than 3×10^−6 M in the ELISA. All the pipettings are done with an eight-channel pipette, except those of the antibody and sample solutions. Starting with the last well, 100 μL of a carbonate buffer (100 mM, pH 9.6) containing 2.5 μg mL^−1 antibodies are added to each well. After 90 min. at room temperature, the wells are washed three times with […] of TPB: isotonic sodium phosphate buffer (310 mosm, pH 7.50) containing 0.05% Tween™ 20.
After the initial wash, unoccupied sites are blocked by incubation for 90 min. at room temperature with 100 μL TBP containing 3% BSA. The wells are washed four times with 100 μL TPB. […] The microplate is gently shaken with an orbital shaker at room temperature for 3-4 hours. […]

## O=c1[nH]c(=O)c2[nH]cnc2[nH]1 [Xanthine]
  % Cross-Reaction AAMU-Ab: 0a %
